Our source for the Activity and Tm values is ChEMBL document CHEMBL2057207, “Fluorometric detection of adenine in target DNA by exciplex formation with fluorescent 8-arylethynylated deoxyguanosine” (Bioorg Med Chem Lett, 2012).

The structures appear in SMILES notation. Calls of active or inactive are those of the source. No cut-off for these calls is given here.

What all share (assay type): nucleic-acid assay
In test [1] the test system is Nucleic Acid. In words: Binding affinity to DNA 3'-GCG TTA A ATT GCG-5' assessed as change in fluorescence emission at 2.5 uM by UV-Vis spectrophotometric analysis at pH 7.
Test [2] has as its system Nucleic Acid. In words: Binding affinity to DNA 3'-GCG TTA T ATT GCG-5' assessed as melting temperature.
For test [3], the system named is Nucleic Acid. As to the kind of experiment: Binding affinity to DNA 3'-GCG TTA C ATT GCG-5' assessed as change in fluorescence emission at 2.5 uM by UV-Vis spectrophotometric analysis at pH 7.
For test [4], the system named is Nucleic Acid. In words: Binding affinity to DNA 3'-GCG TTA C ATT GCG-5' assessed as melting temperature.
In test [5] the test system is Nucleic Acid. In words: Binding affinity to DNA 3'-GCG TTA A ATT GCG-5' assessed as melting temperature.
In test [6] the test system is Nucleic Acid. In words: Binding affinity to DNA 3'-GCG TTA G ATT GCG-5' assessed as melting temperature.
In test [7] the test system is Nucleic Acid. In words: Binding affinity to DNA 3'-GCG TTA T ATT GCG-5' assessed as change in fluorescence emission at 2.5 uM by UV-Vis spectrophotometric analysis at pH 7.
In test [8] the test system is Nucleic Acid. In words: Binding affinity to DNA 3'-GCG TTA G ATT GCG-5' assessed as change in fluorescence emission at 2.5 uM by UV-Vis spectrophotometric analysis at pH 7.
Test [9] relates to Nucleic Acid. As to the kind of experiment: Binding affinity to DNA 3'-GCG TTA A ATT GCG-5' assessed as change in fluorescence emission at 2.5 uM by UV transilluminator analysis.
The test system of test [10] is Nucleic Acid. As to the kind of experiment: Binding affinity to DNA 3'-GCG TTA T ATT GCG-5' assessed as change in fluorescence emission at 2.5 uM by UV transilluminator analysis.
In test [11] the test system is Nucleic Acid. As to the kind of experiment: Binding affinity to DNA 3'-GCG TTA G ATT GCG-5' assessed as change in fluorescence emission at 2.5 uM by UV transilluminator analysis.
Test [12] has as its system Nucleic Acid. As to the kind of experiment: Binding affinity to DNA 3'-GCG TTA C ATT GCG-5' assessed as change in fluorescence emission at 2.5 uM by UV transilluminator analysis.

For `COc1ccc(C#Cc2nc3c(=O)[nH]c(N)nc3n2[C@H]2C[C@H](OP(=O)(O)OC[C@H]3O[C@@H](n4cc(C)c(=O)[nH]c4=O)C[C@@H]3OP(=O)(O)OC[C@H]3O[C@@H](n4cnc5c(N)ncnc54)C[C@@H]3OP(=O)(O)OC[C@H]3O[C@@H](n4cnc5c(N)ncnc54)C[C@@H]3OP(=O)(O)OC[C@H]3O[C@@H](n4ccc(N)nc4=O)C[C@@H]3OP(=O)(O)OC[C@H]3O[C@@H](n4cnc5c(=O)[nH]c(N)nc54)C[C@@H]3OP(=O)(O)OC[C@H]3O[C@@H](n4ccc(N)nc4=O)C[C@@H]3O)[C@@H](COP(=O)(O)O[C@H]3C[C@H](n4cc(C)c(=O)[nH]c4=O)O[C@@H]3COP(=O)(O)O[C@H]3C[C@H](n4cnc5c(N)ncnc54)O[C@@H]3COP(=O)(O)O[C@H]3C[C@H](n4cnc5c(N)ncnc54)O[C@@H]3COP(=O)(O)O[C@H]3C[C@H](n4ccc(N)nc4=O)O[C@@H]3COP(=O)(O)O[C@H]3C[C@H](n4cnc5c(=O)[nH]c(N)nc54)O[C@@H]3COP(=O)(O)O[C@H]3C[C@H](n4ccc(N)nc4=O)O[C@@H]3CO)O2)c2ccccc12`, the result in the test on Nucleic Acid [1] was Active. For the same compound, the Tm is 46.7 °C in the test with Nucleic Acid [2], 49.4 °C in the test with Nucleic Acid [4], 49.2 °C in the test with Nucleic Acid [5] and 49.6 °C with Nucleic Acid [6]. Further, the outcome in the test with Nucleic Acid [3], in the test with Nucleic Acid [7] and in the test with Nucleic Acid [8] was inactive.

Regarding `COc1ccc(C#Cc2nc3c(=O)[nH]c(N)nc3n2[C@H]2C[C@H](OP(=O)(O)OC[C@H]3O[C@@H](n4cc(C)c(=O)[nH]c4=O)C[C@@H]3OP(=O)(O)OC[C@H]3O[C@@H](n4cnc5c(N)ncnc54)C[C@@H]3OP(=O)(O)OC[C@H]3O[C@@H](n4cnc5c(N)ncnc54)C[C@@H]3OP(=O)(O)OC[C@H]3O[C@@H](n4ccc(N)nc4=O)C[C@@H]3OP(=O)(O)OC[C@H]3O[C@@H](n4cnc5c(=O)[nH]c(N)nc54)C[C@@H]3OP(=O)(O)OC[C@H]3O[C@@H](n4ccc(N)nc4=O)C[C@@H]3O)[C@@H](COP(=O)(O)O[C@H]3C[C@H](n4cc(C)c(=O)[nH]c4=O)O[C@@H]3COP(=O)(O)O[C@H]3C[C@H](n4cnc5c(N)ncnc54)O[C@@H]3COP(=O)(O)O[C@H]3C[C@H](n4cnc5c(N)ncnc54)O[C@@H]3COP(=O)(O)O[C@H]3C[C@H](n4ccc(N)nc4=O)O[C@@H]3COP(=O)(O)O[C@H]3C[C@H](n4cnc5c(=O)[nH]c(N)nc54)O[C@@H]3COP(=O)(O)O[C@H]3C[C@H](n4ccc(N)nc4=O)O[C@@H]3CO)O2)cc1`, the result with Nucleic Acid [1], in the test on Nucleic Acid [9], with Nucleic Acid [10], in the test with Nucleic Acid [11] and in the test on Nucleic Acid [12] was Active. The Tm with Nucleic Acid [2] was found to be 45.1 °C; with Nucleic Acid [4] it was 50.5 °C; in the test on Nucleic Acid [5], 49.7 °C; in the test with Nucleic Acid [6] it was 49.8 °C. In addition, the result in the test on Nucleic Acid [3], with Nucleic Acid [7] and in the test with Nucleic Acid [8] was inactive.

`Cc1cn([C@H]2C[C@H](OP(=O)(O)OC[C@H]3O[C@@H](n4c(C#Cc5ccccc5)nc5c(=O)[nH]c(N)nc54)C[C@@H]3OP(=O)(O)OC[C@H]3O[C@@H](n4cc(C)c(=O)[nH]c4=O)C[C@@H]3OP(=O)(O)OC[C@H]3O[C@@H](n4cnc5c(N)ncnc54)C[C@@H]3OP(=O)(O)OC[C@H]3O[C@@H](n4cnc5c(N)ncnc54)C[C@@H]3OP(=O)(O)OC[C@H]3O[C@@H](n4ccc(N)nc4=O)C[C@@H]3OP(=O)(O)OC[C@H]3O[C@@H](n4cnc5c(=O)[nH]c(N)nc54)C[C@@H]3OP(=O)(O)OC[C@H]3O[C@@H](n4ccc(N)nc4=O)C[C@@H]3O)[C@@H](COP(=O)(O)O[C@H]3C[C@H](n4cnc5c(N)ncnc54)O[C@@H]3COP(=O)(O)O[C@H]3C[C@H](n4cnc5c(N)ncnc54)O[C@@H]3COP(=O)(O)O[C@H]3C[C@H](n4ccc(N)nc4=O)O[C@@H]3COP(=O)(O)O[C@H]3C[C@H](n4cnc5c(=O)[nH]c(N)nc54)O[C@@H]3COP(=O)(O)O[C@H]3C[C@H](n4ccc(N)nc4=O)O[C@@H]3CO)O2)c(=O)[nH]c1=O`: the result with Nucleic Acid [1], in the test with Nucleic Acid [3], in the test on Nucleic Acid [7] and in the test on Nucleic Acid [8] was inactive.

Take `COc1cc(OC)c(C#Cc2nc3c(=O)[nH]c(N)nc3n2[C@H]2C[C@H](OP(=O)(O)OC[C@H]3O[C@@H](n4cc(C)c(=O)[nH]c4=O)C[C@@H]3OP(=O)(O)OC[C@H]3O[C@@H](n4cnc5c(N)ncnc54)C[C@@H]3OP(=O)(O)OC[C@H]3O[C@@H](n4cnc5c(N)ncnc54)C[C@@H]3OP(=O)(O)OC[C@H]3O[C@@H](n4ccc(N)nc4=O)C[C@@H]3OP(=O)(O)OC[C@H]3O[C@@H](n4cnc5c(=O)[nH]c(N)nc54)C[C@@H]3OP(=O)(O)OC[C@H]3O[C@@H](n4ccc(N)nc4=O)C[C@@H]3O)[C@@H](COP(=O)(O)O[C@H]3C[C@H](n4cc(C)c(=O)[nH]c4=O)O[C@@H]3COP(=O)(O)O[C@H]3C[C@H](n4cnc5c(N)ncnc54)O[C@@H]3COP(=O)(O)O[C@H]3C[C@H](n4cnc5c(N)ncnc54)O[C@@H]3COP(=O)(O)O[C@H]3C[C@H](n4ccc(N)nc4=O)O[C@@H]3COP(=O)(O)O[C@H]3C[C@H](n4cnc5c(=O)[nH]c(N)nc54)O[C@@H]3COP(=O)(O)O[C@H]3C[C@H](n4ccc(N)nc4=O)O[C@@H]3CO)O2)c(OC)c1`: in the test on Nucleic Acid [1], the result was Active. The Tm in the test with Nucleic Acid [2] was 42.8 °C; with Nucleic Acid [4], 45.5 °C; in the test with Nucleic Acid [5], 52.2 °C; in the test with Nucleic Acid [6], 46.2 °C. Also, the outcome with Nucleic Acid [3], in the test with Nucleic Acid [7] and in the test with Nucleic Acid [8] was inactive.
